Experimental data from article PMC4147597 (Toxins, 2014).
Where two headings read alike, the source gives them in different places.

Experiments:
[1] = system: L-type Ca^2+ channels; conditions: read-out: IC50 for block of L-type Ca^2+ channels; cited from earlier work
Text: (§1) There are a variety of valuable pharmacological tools available to study the contribution of specific IK channels to the mechanism of endothelium-dependent dilation in isolated vessels and to blood pressure control in vivo. IK channel modulators mainly comprise small organic compounds and venom-derived peptides. These different classes of chemicals modulate the channel by binding to either the external or the internal face of the ion-conducting pore. Among the different ion modulators, venom-derived peptides usually block their targets with high affinity, that is, with IC50 in the […] ...

[2] = target: T1, hIK1 (Homo sapiens, UniProt O15554); conditions: hIK1 cell line; read-out: EC50 for hIK1 activation; cited from earlier work
T1 construct: expressed in transfected cells; host or cells: HEK293T cells, transient transfection with Lipofectamine 2000
Text: The intermediate-conductance Ca^2+-activated K^+ (IK) channels belong to the gene family of calcium/calmodulin-regulated and voltage-independent K^+ channels (SK1/SK2/SK3 and IK) and contribute to cellular functions by producing membrane hyperpolarization, thus regulating intracellular Ca^2+ signaling. IK channels are gated solely by internal Ca^2+, with a unit conductance of 20–85 pS. Expression of hIK1 in HEK293T cells gives rise to inwardly rectifying K^+ currents, which are activated by submicromolar concentrations of intracellular Ca^2+ (EC50 = 0.3 μM). […] After the application of 80 μM HNTX-I, NS309 still activated the current about 1.5-fold (Figure 3A). […] After the initial equilibration period, HNTX-I was added at 80 μM to yield a higher current within ~3 min. Then, 100 nM NS309 was applied and reached the peak in under 1 min. Thus, the p ...

[3] = target: T1, hIK1; format: cell-based; conditions: for enhancement of the amplitude of IK currents: 0.3 μM free Ca^2+ in pipette, voltage ramps
[4] = system: cardiac hERG K^+ channels; conditions: micromolar concentrations; cited from earlier work
Text: as §1

[5] = system: voltage-gated Ca^2+ channels; experiment: voltage-gated Ca^2+ channels, summary of screening; format: cell-based, rat; conditions: 100 μM
[6] = system: mouse phrenic nerve-diaphragm preparations; experiment: phrenic nerve-diaphragm twitch-tension (phrenic nerve conduction block)
Procedure: The twitch-tension experiments were performed using mouse phrenic nerve-diaphragm preparations. Adult Kunming albino mice (18–22 g of either gender) were killed by cervical dislocation. After dissection, the preparations were placed in a Plexiglas chamber immersed in Tyrode’s solution or toxin solutions continuously bubbled with 95% O2, 5% CO2 and maintained at 30–32 °C. The electrical stimulation was applied indirectly to the phrenic nerve with a suction electrode at 0.2 Hz with pulses of 0.2 ms in duration and supramaximally. For direct stimulation, the muscle was stimulated at a frequency of 0.2 Hz (supramaximal, 2 ms, square wave). A mechanical-electric transducer made of a semiconductor strain gauge was used to transform the twitch responses into electric signals. […] The time from the application of HNTX-I to complete blocking of neuromuscular transmission was defined as blocking time, and the concentrations of HNTX-I we used were 1 μM, 10 μM and 100 μM.

[7] = system: para/tipE; conditions: Xenopus laevis oocytes; ref previous works; cited from earlier work
[8] = system: American cockroach (Periplaneta americana); experiment: acute in vivo toxicity in American cockroach; conditions: intra-abdominal injection, 50–250 μg/g; adult male; 7 days
Procedure: (§2) Five mice (17–19 g) were injected intravenously with multiple […] doses of 0.5–2.5 mg/kg HNTX-I (in mammalian Ringer solution with 1% ethanol and 2.5% BSA). Five control mice were injected with an equal volume of the vehicle. The toxicity of HNTX-I was qualitatively assayed by intra-abdominal injection into adult male cockroaches (Periplaneta) with body weights of 0.8–1.2 g at doses of 50–250 μg/g using 10-μL solutions (in 0.85% (w/v) normal saline).

[9] = system: rNav1.2/β1; conditions: Xenopus laevis oocytes; ref previous works; cited from earlier work
[10] = system: voltage-gated T-type Ca^2+ channels; experiment: T-type Ca^2+ channels from DRG, whole-cell patch-clamp; format: cell-based; conditions: 100 μM; rat DRG; n = 5
[11] = system: tetrodotoxin-resistant (TTX-R) Na^+ channels; conditions: cited from earlier work
[12] = system: voltage-gated Na^+ channels; experiment: voltage-gated Na^+ channels, summary of screening; format: cell-based, rat; conditions: 100 μM
[13] = system: neuronal TTX-S VGSCs; conditions: adult rat dorsal root ganglion neurons; ref previous works (ref 9); cited from earlier work
[14] = system: VGSCs; conditions: ref previous work; cited from earlier work
Text: In general, hydrophobic and polar residue hot spots are important binding determinants in toxins and ion channel interactions. […] HNTX-I should therefore present a similar type of interacting surface as other toxins whose binding sites are at the outer membrane. In our previous work, we have shown that such a basic profile ...

[15] = system: VGSCs in cardiac or skeletal muscles; conditions: mammals; ref previous works; cited from earlier work
[16] = system: hERG K^+ channel; conditions: 100 μM
[17] = system: BK channels; experiment: BK channel current in HEK293T cells, whole-cell patch-clamp; format: cell-based; conditions: 100 μM, n = 5
[18] = system: voltage-gated L-type Ca^2+ channels; experiment: L-type Ca^2+ channels from DRG, whole-cell patch-clamp; format: cell-based; conditions: 100 μM; rat DRG; n = 5
[19] = system: mice; experiment: acute in vivo toxicity in mice; parameters: species or system mouse
Procedure: as §2

[20] = intravenous, 0.5–2.5 mg/kg, seven days

T1 sequence (O15554 whole entry): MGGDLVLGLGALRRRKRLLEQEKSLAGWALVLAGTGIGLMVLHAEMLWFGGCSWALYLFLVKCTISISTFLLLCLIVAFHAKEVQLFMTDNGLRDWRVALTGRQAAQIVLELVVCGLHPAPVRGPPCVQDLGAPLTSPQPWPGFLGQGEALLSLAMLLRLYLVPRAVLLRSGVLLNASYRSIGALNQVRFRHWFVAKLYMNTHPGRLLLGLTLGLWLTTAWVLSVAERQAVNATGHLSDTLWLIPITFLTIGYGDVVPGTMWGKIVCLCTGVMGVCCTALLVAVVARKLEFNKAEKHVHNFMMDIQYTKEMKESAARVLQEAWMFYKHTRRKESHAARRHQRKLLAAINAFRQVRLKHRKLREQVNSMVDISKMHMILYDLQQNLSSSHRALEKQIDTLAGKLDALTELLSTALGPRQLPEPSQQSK

Compound: CCn1c(=O)[nH]c2cc(Cl)c(Cl)cc21 [DC-EBIO, 5,6-dichloro-1-ethyl-1,3-dihydro-2H-benzimidazole-2-one]
- IC50 [1]: 70 µM

Compound: O=C1Nc2c(ccc(Cl)c2Cl)C1=NO [NS309, 3-oxime-6,7-dichloro-1H-indole-2,3-dione, reference compound]
- EC50 [2]: 0.03 µM
- activation of hIK1 channels in the presence of HNTX-I ([3]; 100 nM NS309, 80 μM HNTX-I): activated hIK1 channels
- activation of current after HNTX-I (fold) ([3]; 100 nM NS309 after application of 80 μM HNTX-I): about 1.5 fold
- influence of HNTX-I on potency and kinetics of NS309 ([3]; 100 nM NS309 in the presence of 80 μM HNTX-I): not notably influenced by HNTX-I
- time to peak of NS309 activation ([3]; 100 nM NS309 in the presence of 80 μM HNTX-I, n = 5): under 1 min
- IC50 [1]: 10 µM
- inhibition of cardiac hERG K^+ channels [4]: inhibits

Compound: Hainantoxin-I [HNTX-I]
- sensitivity of voltage-gated Ca^2+ channels [5]: insensitive
- inhibition of nerve-evoked twitch tension ([6]; 1 μM, Tyrode's solution, 30–32 °C): did not inhibit the nerve-evoked twitch tension
- influence on neuromuscular transmission ([6]; 100 μM or lower): did not influence the neuromuscular transmission
- blockade of twitch responses ([6]; 10 and 100 μM, within 4 h, n = 5): no apparent blockades in the twitch responses
- block of para/tipE [7]: selectively blocks
- symptoms of poisoning [8]: did not produce symptoms of poisoning
- block of rNav1.2/β1 [9]: selectively blocks
- enhancement of the amplitude of IK currents ([3]; 40 μM HNTX-I, n = 5): 33.2% ± 0.5
- reversibility / dose-dependency on hIK1 ([3]; 80 μM HNTX-I): clearly demonstrated the dose-dependency, as well as reversible nature
- time to yield higher current ([3]; 80 μM HNTX-I, after initial equilibration, before NS309): ~ 3 min
- enhancement of the amplitude of IK currents ([3]; 80 μM HNTX-I, n = 5): 97% ± 0.7
- Imax ([3]; 80 μM HNTX-I, current shortly before application = 100%): 197%
- Imax at higher concentration ([3]; 200 μM HNTX-I, compared with 80 μM): did not change
- time to reach higher current level ([3]; after 40 μM HNTX-I applied, n = 5): ~ 3 min
- return of current to baseline upon washing ([3]; washing after 40 μM HNTX-I, n = 5): the current returned to baseline with approximately the same time characteristics
- effect on T-type Ca^2+ channels [10]: no effect
- effect on TTX-R Na^+ channels [11]: no effect
- sensitivity of voltage-gated Na^+ channels [12]: insensitive
- effect on neuronal TTX-S VGSCs [13]: no effect
- inhibition of VGSCs in vertebrates and insects [14]: inhibits VGSCs
- effect on VGSCs in cardiac or skeletal muscles [15]: nor does it target VGSCs
- sensitivity of hERG K^+ channels [16]: insensitive
- effect on hERG K^+ channel ([16]; HEK293T cells, n = 5): no effect
- effect on BK channels [17]: no effect
- effect on L-type Ca^2+ channels [18]: no effect
- clinical appearance ([19]; intravenous, 0.5, 1.0, 1.5, 2.0 and 2.5 mg/kg, five mice per dose, seven-day study): appeared clinically normal
- aggressive/defensive responses [19, 20]: no aggressive/defensive responses were elicited
- death [19, 20]: did not cause death at any concentration
- depilation of pelage [19, 20]: not depilated
